Measured values published in publication PMC8233901, “D-Amino Acid-Containing Lipopeptides Derived from the Lead Peptide BP100 with Activity against Plant Pathogens” (International Journal of Molecular Sciences, 2021).
Several values for one entry are separate records, joined by “and”; a condition that tells them apart may be missing. Equal values may be shown once. Where a SMILES comes first, the peptide text is derived from it. [ ]: non-standard residue; d: D form. The star is where a group is joined. Lauroyl = CCCCCCCCCCCC(=O)*; Hexanoyl = CCCCCC(=O)*; Butyryl = CCCC(=O)*

Assays:
horse erythrocytes = assay: Hemolytic activity (hemoglobin release from erythrocytes); assay type: cell-based; details: 37 °C, ± confidence interval (α = 0.05); for Hemolysis (%) 250 µM / Hemolysis (%) 150 µM / Hemolysis (%) 375 µM: relative to melittin; for Hemolysis (%) 50 µM: absorbance 540 nm, relative to melittin 100 µM
Method: The hemolytic activity of the compounds was evaluated by determining hemoglobin release from erythrocyte suspensions of horse blood (5% vol/vol) (Oxoid) as previously described. Blood was centrifuged at 6000 g for 5 min, washed three times with tris(hydroxymethyl)aminomethane (TRIS) buffer (10 mM TRIS, 150 mM NaCl, pH 7.2) and diluted 10 times. Compounds were solubilized in TRIS buffer at 750, 500, 300 and 100 μM and mixed with horse erythrocytes (1:1 v/v). The mixture was incubated under continuous shaking for 1 h at 37 °C. Then, the tubes were centrifuged at 3500 g for 10 min, 80 μL aliquots of the supernatant transferred to 100-well microplates (Bioscreen), diluted with 80 μL water, and the absorbance measured at 540 nm (Bioscreen). Complete hemolysis was obtained by the addition of melittin at 100 μM (Sigma-Aldrich Corporation, Madrid, Spain). The percentage of hemolysis (H) was calculated using the equation: H = 100 × [(Op−Ob)/(Om−Ob)], where Op is the density for a given compound concentration, Ob for the buffer, and Om for the melittin-positive control.

tobacco leaves = assay: Effect of peptide infiltration on tobacco leaves (lesion size); assay type: in vivo; details: for Size of the lesion (mm) 50 µM: 100 µL infiltrated into mesophyll of tobacco leaves; for Size of the lesion (mm) 50 µM / Size of the lesion (mm) 150 µM / Size of the lesion (mm) 250 µM: ± confidence interval
Method: The lipopeptides were evaluated for their effect upon infiltration on tobacco leaves as described previously. Peptide solutions of 50, 150 and 250 μM were infiltrated (100 μL) into the mesophylls of fully expanded tobacco leaves. Infiltrations were carried out in a single leaf, and for each peptide and dose, at least three leaves randomly distributed in different plants were infiltrated. Control infiltrations with water (negative control) or melittin (positive control) at the same molar concentration were performed. The appearance of symptoms on the leaves was followed for 48 h after infiltration and measured as a lesion diameter.

[1] = D-amino acid lipopeptides, 250 µM, TRIS buffer pH 7.2, 1 h
[2] = D-amino acid lipopeptides, lesion diameter, 48 h, at least three leaves
[3] = D-amino acid lipopeptides, 100 µL infiltrated into tobacco leaves, lesion diameter, 48 h, at least three leaves
[4] = D-amino acid lipopeptides, 250 µM, 100 µL infiltrated into tobacco leaves, lesion diameter, 48 h, at least three leaves
[5] = Table 2, 250 µM infiltrated into tobacco leaves
[6] = D-amino acid lipopeptides, TRIS buffer pH 7.2, 1 h

Row | Compound | Hemolysis (%) 250 µM (horse erythrocytes; [1]) | Size of the lesion (mm) 50 µM (tobacco leaves; [2]) [mm] | Size of the lesion (mm) 150 µM (tobacco leaves; [3]) [mm] | Size of the lesion (mm) 250 µM (tobacco leaves; [4]) [mm] | Size of the lesion (mm) 250 µM (tobacco leaves; [5]) [mm] | Hemolysis (%) 50 µM (horse erythrocytes; [6]) [%] | Hemolysis (%) 150 µM (horse erythrocytes; [6]) [%] | Hemolysis (%) 375 µM (horse erythrocytes; [6]) [%] | Hemolysis (%) 250 µM (horse erythrocytes; Table 2, 250 µM, 1 h) [%] | necrosis in infiltrated tobacco leaves (tobacco leaves; positive control, 250 µM) [mm]
1 | CCCCCC(=O)N[C@@H](CCCCN)C(=O)N[C@@H](CCCCN)C(=O)N[C@@H](CC(C)C)C(=O)N[C@H](Cc1ccccc1)C(=O)N[C@@H](CCCCN)C(=O)N[C@@H](CCCCN)C(=O)N[C@H](C(=O)N[C@@H](CC(C)C)C(=O)N[C@@H](CCCCN)C(=O)N[C@@H](Cc1ccc(O)cc1)C(=O)N[C@@H](CC(C)C)C(N)=O)[C@@H](C)CC [BP472, C5H11CO-KKLfKKILKYL-NH2] | 78 ± 5% | 2 ± 1 | 4 ± 1 | 4 ± 1 | 4 ± 1 |  |  |  |  | 
2 | CCCC(=O)NCCCC[C@H](NC(=O)[C@H](CCCCN)NC(=O)[C@@H](Cc1ccccc1)NC(=O)[C@H](CC(C)C)NC(=O)[C@H](CCCCN)NC(=O)[C@H](CCCCN)NC(C)=O)C(=O)N[C@H](C(=O)N[C@@H](CC(C)C)C(=O)N[C@@H](CCCCN)C(=O)N[C@@H](Cc1ccc(O)cc1)C(=O)N[C@@H](CC(C)C)C(N)=O)[C@@H](C)CC [BP473, Ac-KKLfKK(COC3H7)ILKYL-NH2] | 84 ± 11% | 2 ± 2 | 4 ± 0.9 | 5 ± 2 | 5 ± 2 |  |  |  |  | 
3 | CCCC(=O)NCCCC[C@H](NC(=O)[C@@H](NC(=O)[C@H](CCCCN)NC(=O)[C@H](CCCCN)NC(=O)[C@@H](Cc1ccccc1)NC(=O)[C@H](CC(C)C)NC(=O)[C@H](CCCCN)NC(=O)[C@H](CCCCN)NC(C)=O)[C@@H](C)CC)C(=O)N[C@@H](CCCCN)C(=O)N[C@@H](Cc1ccc(O)cc1)C(=O)N[C@@H](CC(C)C)C(N)=O [BP474, Ac-KKLfKKIK(COC3H7)KYL-NH2] (Ac-KKL[dF]KKIK(Butyryl)KYL-NH2) | 0 ± 0% | 0 ± 0 | 2 ± 2 | 4 ± 2 | 4 ± 2 | 0 ± 0 | 0 ± 0 | 0 ± 0 |  | 
4 | CCCC(=O)NCCCC[C@H](NC(=O)[C@H](CCCCN)NC(=O)[C@H](CC(C)C)NC(=O)[C@@H](NC(=O)[C@H](CCCCN)NC(=O)[C@H](CCCCN)NC(=O)[C@@H](Cc1ccccc1)NC(=O)[C@H](CC(C)C)NC(=O)[C@H](CCCCN)NC(=O)[C@H](CCCCN)NC(C)=O)[C@@H](C)CC)C(=O)N[C@@H](CC(C)C)C(N)=O [BP475, Ac-KKLfKKILKK(COC3H7)L-NH2] (Ac-KKL[dF]KKILKK(Butyryl)L-NH2) | 0 ± 0% and 0% | 5 ± 1 | 7 ± 2 | 10 ± 1 | 10 ± 1 | 0 ± 0 | 0 ± 0 | 0 ± 0 |  | 
5 | CCCCCCCCCCCC(=O)NCCCC[C@H](NC(=O)[C@H](Cc1ccc(O)cc1)NC(=O)[C@H](CCCCN)NC(=O)[C@H](CC(C)C)NC(=O)[C@@H](NC(=O)[C@H](CCCCN)NC(=O)[C@H](CCCCN)NC(=O)[C@@H](Cc1ccccc1)NC(=O)[C@H](CC(C)C)NC(=O)[C@H](CCCCN)NC(=O)[C@H](CCCCN)NC(C)=O)[C@@H](C)CC)C(N)=O [BP476, Ac-KKLfKKILKYK(COC11H23)-NH2] (Ac-KKL[dF]KKILKYK(Lauroyl)-NH2) | 94 ± 10% | 3 ± 0.6 | 3 ± 0.5 | 5 ± 0.5 | 5 ± 0.5 |  |  | 94 ± 67 |  | 
6 | CCCCCC(=O)NCCCC[C@@H](NC(=O)[C@H](CC(C)C)NC(=O)[C@H](CCCCN)NC(=O)[C@H](CCCCN)NC(C)=O)C(=O)N[C@@H](CCCCN)C(=O)N[C@@H](CCCCN)C(=O)N[C@H](C(=O)N[C@@H](CC(C)C)C(=O)N[C@@H](CCCCN)C(=O)N[C@@H](Cc1ccc(O)cc1)C(=O)N[C@@H](CC(C)C)C(N)=O)[C@@H](C)CC [BP484, Ac-KKLk(COC5H11)KKILKYL-NH2] | 10 ± 2% | 0 ± 0 | 2 ± 2 | 7 ± 1 | 7 ± 1 |  |  |  |  | 
7 | CCCC(=O)N[C@@H](CCCCN)C(=O)N[C@@H](CCCCN)C(=O)N[C@@H](CC(C)C)C(=O)N[C@H](Cc1ccccc1)C(=O)N[C@@H](CCCCN)C(=O)N[C@@H](CCCCN)C(=O)N[C@H](C(=O)N[C@@H](CC(C)C)C(=O)N[C@@H](CCCCN)C(=O)N[C@@H](Cc1ccc(O)cc1)C(=O)N[C@@H](CC(C)C)C(N)=O)[C@@H](C)CC [BP485, C3H7CO-KKLfKKILKYL-NH2] | 24 ± 9% | 4 ± 0.7 | 7 ± 0.7 | 12 ± 1 | 12 ± 1 |  |  |  |  | 
8 | CCCC(=O)NCCCC[C@H](NC(=O)[C@H](CCCCN)NC(C)=O)C(=O)N[C@@H](CC(C)C)C(=O)N[C@H](Cc1ccccc1)C(=O)N[C@@H](CCCCN)C(=O)N[C@@H](CCCCN)C(=O)N[C@H](C(=O)N[C@@H](CC(C)C)C(=O)N[C@@H](CCCCN)C(=O)N[C@@H](Cc1ccc(O)cc1)C(=O)N[C@@H](CC(C)C)C(N)=O)[C@@H](C)CC [BP486, Ac-KK(COC3H7)LfKKILKYL-NH2] | 14 ± 5% | 4 ± 1 | 8 ± 1 | 17 ± 2 | 17 ± 2 |  |  | 14 ± 2 |  | 
9 | CCCCCCCCCCCC(=O)NCCCC[C@@H](NC(=O)[C@H](CC(C)C)NC(=O)[C@H](CCCCN)NC(=O)[C@H](CCCCN)NC(C)=O)C(=O)N[C@@H](CCCCN)C(=O)N[C@@H](CCCCN)C(=O)N[C@H](C(=O)N[C@@H](CC(C)C)C(=O)N[C@@H](CCCCN)C(=O)N[C@@H](Cc1ccc(O)cc1)C(=O)N[C@@H](CC(C)C)C(N)=O)[C@@H](C)CC [BP488, Ac-KKLk(COC11H23)KKILKYL-NH2] | 86 ± 14% | 4 ± 0.7 | 5 ± 1 | 13 ± 5 | 13 ± 5 |  |  |  |  | 
10 | CCCCCCCCCCCC(=O)NCCCC[C@H](NC(=O)[C@H](CCCCN)NC(=O)[C@H](CCCCN)NC(=O)[C@@H](Cc1ccccc1)NC(=O)[C@H](CC(C)C)NC(=O)[C@H](CCCCN)NC(=O)[C@H](CCCCN)NC(C)=O)C(=O)N[C@@H](CC(C)C)C(=O)N[C@@H](CCCCN)C(=O)N[C@@H](Cc1ccc(O)cc1)C(=O)N[C@@H](CC(C)C)C(N)=O [BP489, Ac-KKLfKKK(COC11H23)LKYL-NH2] (Ac-KKL[dF]KKK(Lauroyl)LKYL-NH2) | 100 ± 6% | 2 ± 0.5 | 6 ± 2 | 11 ± 1 | 11 ± 1 |  |  | 100 ± 1 |  | 
11 | CCCCCCCCCCCC(=O)NCCCC[C@H](NC(=O)[C@@H](NC(=O)[C@H](CCCCN)NC(=O)[C@H](CCCCN)NC(=O)[C@@H](Cc1ccccc1)NC(=O)[C@H](CC(C)C)NC(=O)[C@H](CCCCN)NC(=O)[C@H](CCCCN)NC(C)=O)[C@@H](C)CC)C(=O)N[C@@H](CCCCN)C(=O)N[C@@H](Cc1ccc(O)cc1)C(=O)N[C@@H](CC(C)C)C(N)=O [BP490, Ac-KKLfKKIK(COC11H23)KYL-NH2] (Ac-KKL[dF]KKIK(Lauroyl)KYL-NH2) | 100 ± 6% | 4 ± 0.7 | 6 ± 2 | 11 ± 3 | 11 ±3 | 100 ± 3 |  |  |  | 
12 | CCCCCC(=O)NCCCC[C@H](NC(=O)[C@H](CCCCN)NC(=O)[C@H](CCCCN)NC(=O)[C@@H](Cc1ccccc1)NC(=O)[C@H](CC(C)C)NC(=O)[C@H](CCCCN)NC(=O)[C@H](CCCCN)NC(C)=O)C(=O)N[C@@H](CC(C)C)C(=O)N[C@@H](CCCCN)C(=O)N[C@@H](Cc1ccc(O)cc1)C(=O)N[C@@H](CC(C)C)C(N)=O [BP494, Ac-KKLfKKK(COC5H11)LKYL-NH2] (Ac-KKL[dF]KKK(Hexanoyl)LKYL-NH2) |  | 1 ± 1 | 6 ± 1 | 8 ± 1 | 8 ± 1 |  |  |  | 0.2 ± 0.2 | 
13 | melittin [reference compound] |  |  |  |  |  |  |  |  |  | 18
